Like-named read-outs stand apart in the source and are kept apart here.
What was measured:
Experiment in all cases: KINOMEscan ScanTK
Format in all cases: binding
FLT3(N841I) = biological target: T1, FLT3(N841I) (Homo sapiens, UniProt P36888, N841I)
T1 construct: purchased Eurofins DiscoverX KINOMEscan (scanTK)
T1 sequence (P36888 27-993 N841I): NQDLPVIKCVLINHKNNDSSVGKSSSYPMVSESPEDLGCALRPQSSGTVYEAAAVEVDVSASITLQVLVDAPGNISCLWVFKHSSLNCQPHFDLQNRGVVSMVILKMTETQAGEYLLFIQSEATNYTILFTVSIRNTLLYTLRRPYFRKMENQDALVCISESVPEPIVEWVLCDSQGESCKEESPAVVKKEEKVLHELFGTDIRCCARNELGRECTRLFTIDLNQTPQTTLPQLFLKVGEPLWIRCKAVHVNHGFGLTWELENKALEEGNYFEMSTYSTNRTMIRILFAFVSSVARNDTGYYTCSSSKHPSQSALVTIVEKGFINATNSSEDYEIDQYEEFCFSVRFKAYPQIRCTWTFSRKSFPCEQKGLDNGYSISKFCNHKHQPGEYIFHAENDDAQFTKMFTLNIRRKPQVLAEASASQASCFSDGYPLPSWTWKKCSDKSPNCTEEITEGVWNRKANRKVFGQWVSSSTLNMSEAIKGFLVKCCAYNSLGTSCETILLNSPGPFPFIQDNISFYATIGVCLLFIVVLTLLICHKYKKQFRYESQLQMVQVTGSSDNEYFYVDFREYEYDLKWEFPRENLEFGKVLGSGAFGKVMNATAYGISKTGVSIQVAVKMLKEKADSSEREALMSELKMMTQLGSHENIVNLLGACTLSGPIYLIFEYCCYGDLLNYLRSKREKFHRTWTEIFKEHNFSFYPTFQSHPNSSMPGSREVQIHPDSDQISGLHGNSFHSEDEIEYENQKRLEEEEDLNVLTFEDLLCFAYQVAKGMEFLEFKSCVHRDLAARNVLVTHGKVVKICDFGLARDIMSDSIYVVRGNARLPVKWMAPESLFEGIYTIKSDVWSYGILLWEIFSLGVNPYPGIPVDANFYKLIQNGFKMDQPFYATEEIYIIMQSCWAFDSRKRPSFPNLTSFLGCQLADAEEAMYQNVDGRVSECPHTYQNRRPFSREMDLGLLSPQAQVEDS

EGFR(E746-A750del) = biological target: T2, EGFR(E746-A750del) (Homo sapiens, UniProt P00533, DEL746-750)
T2 construct: purchased Eurofins DiscoverX KINOMEscan (scanTK)

FGR = biological target: T3, FGR (Homo sapiens, UniProt P09769)
T3 construct: purchased Eurofins DiscoverX KINOMEscan (scanTK)

EPHA5 = biological target: T4, EPHA5 (Homo sapiens, UniProt P54756)
T4 construct: purchased Eurofins DiscoverX KINOMEscan (scanTK)

FAK = biological target: T5, FAK (Homo sapiens, UniProt Q05397)
T5 construct: purchased Eurofins DiscoverX KINOMEscan (scanTK)

FLT3(ITD) = conditions: for % difference (compound - Ib %Control) / %Control: @1000nM
EPHA3 = biological target: T6, EPHA3 (Homo sapiens, UniProt P29320)
T6 construct: purchased Eurofins DiscoverX KINOMEscan (scanTK)
T6 sequence (P29320 21-983): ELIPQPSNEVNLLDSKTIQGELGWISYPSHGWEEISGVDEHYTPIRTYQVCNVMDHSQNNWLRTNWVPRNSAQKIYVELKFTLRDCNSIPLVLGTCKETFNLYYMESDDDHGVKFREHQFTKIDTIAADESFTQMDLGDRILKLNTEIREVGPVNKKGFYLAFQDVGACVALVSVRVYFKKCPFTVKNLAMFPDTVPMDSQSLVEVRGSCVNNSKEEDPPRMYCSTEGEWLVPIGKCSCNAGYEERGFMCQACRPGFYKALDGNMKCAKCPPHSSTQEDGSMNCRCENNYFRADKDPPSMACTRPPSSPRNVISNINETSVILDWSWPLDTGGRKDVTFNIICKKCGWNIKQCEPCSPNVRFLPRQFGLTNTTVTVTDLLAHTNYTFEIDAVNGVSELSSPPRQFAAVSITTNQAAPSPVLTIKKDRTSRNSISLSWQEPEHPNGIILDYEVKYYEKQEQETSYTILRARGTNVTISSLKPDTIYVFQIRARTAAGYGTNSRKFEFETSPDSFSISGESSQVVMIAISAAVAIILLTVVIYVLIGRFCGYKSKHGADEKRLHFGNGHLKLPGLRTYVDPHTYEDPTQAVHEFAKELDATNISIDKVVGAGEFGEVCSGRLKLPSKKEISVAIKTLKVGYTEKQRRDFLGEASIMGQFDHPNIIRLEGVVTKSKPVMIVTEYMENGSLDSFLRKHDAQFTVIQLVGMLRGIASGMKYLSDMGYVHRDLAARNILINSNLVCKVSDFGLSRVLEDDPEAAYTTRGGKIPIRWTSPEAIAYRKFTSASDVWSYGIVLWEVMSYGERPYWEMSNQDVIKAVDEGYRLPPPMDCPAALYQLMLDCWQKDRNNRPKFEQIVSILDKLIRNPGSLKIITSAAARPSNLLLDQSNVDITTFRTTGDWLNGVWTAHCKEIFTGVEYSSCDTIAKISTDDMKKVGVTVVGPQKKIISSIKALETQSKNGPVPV

T3 sequence (P09769 whole entry): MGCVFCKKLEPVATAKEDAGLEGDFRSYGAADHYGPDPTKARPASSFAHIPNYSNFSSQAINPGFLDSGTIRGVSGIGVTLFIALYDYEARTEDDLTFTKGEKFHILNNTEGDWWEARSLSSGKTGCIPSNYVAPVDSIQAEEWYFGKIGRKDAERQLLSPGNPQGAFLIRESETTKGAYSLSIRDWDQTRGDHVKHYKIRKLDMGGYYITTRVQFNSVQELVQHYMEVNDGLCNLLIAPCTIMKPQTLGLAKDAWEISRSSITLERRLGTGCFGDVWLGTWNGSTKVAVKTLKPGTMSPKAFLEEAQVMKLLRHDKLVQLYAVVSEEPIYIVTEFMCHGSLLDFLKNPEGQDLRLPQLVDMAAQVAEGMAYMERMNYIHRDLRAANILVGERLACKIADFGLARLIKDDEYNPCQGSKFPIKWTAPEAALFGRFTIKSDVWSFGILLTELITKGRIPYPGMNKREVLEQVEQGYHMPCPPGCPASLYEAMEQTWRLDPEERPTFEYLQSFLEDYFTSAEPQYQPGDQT
T2 sequence (P00533 with tags, fused parts or gaps DEL746-750 limits assumed): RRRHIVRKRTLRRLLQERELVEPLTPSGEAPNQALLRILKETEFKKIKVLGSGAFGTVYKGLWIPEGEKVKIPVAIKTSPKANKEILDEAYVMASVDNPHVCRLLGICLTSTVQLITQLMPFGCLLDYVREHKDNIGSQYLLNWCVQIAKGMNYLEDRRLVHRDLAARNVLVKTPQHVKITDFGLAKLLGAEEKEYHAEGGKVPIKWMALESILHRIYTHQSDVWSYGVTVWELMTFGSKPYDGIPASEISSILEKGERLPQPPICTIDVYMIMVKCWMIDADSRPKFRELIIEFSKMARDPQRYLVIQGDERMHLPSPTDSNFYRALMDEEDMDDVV
T5 sequence (Q05397 whole entry): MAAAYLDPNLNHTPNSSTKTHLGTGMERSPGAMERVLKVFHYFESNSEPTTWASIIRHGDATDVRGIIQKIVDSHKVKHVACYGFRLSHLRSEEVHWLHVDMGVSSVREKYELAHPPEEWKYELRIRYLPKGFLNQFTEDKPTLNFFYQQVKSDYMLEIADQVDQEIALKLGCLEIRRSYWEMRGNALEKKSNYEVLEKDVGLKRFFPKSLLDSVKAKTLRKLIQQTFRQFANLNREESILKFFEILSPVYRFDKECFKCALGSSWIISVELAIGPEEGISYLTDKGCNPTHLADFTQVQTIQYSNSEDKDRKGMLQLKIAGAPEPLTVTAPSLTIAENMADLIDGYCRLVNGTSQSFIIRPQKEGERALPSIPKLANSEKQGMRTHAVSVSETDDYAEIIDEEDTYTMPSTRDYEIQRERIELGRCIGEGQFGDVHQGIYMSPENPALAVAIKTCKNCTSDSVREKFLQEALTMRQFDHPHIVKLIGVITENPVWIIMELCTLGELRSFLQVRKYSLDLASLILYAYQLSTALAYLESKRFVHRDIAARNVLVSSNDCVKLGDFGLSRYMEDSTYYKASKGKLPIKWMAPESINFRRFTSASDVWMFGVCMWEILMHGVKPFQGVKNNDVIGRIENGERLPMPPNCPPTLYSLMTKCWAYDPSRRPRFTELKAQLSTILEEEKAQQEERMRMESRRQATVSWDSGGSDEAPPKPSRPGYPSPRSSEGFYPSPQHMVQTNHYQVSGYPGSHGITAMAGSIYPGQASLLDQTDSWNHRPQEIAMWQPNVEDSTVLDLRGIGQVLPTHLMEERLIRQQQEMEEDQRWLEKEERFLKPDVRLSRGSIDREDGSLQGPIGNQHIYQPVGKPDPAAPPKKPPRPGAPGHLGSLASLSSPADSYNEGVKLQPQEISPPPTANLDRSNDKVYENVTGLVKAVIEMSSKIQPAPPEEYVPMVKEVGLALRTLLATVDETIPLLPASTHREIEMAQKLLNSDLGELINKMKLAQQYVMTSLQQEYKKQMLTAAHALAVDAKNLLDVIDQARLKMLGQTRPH
T4 sequence (P54756 25-1037): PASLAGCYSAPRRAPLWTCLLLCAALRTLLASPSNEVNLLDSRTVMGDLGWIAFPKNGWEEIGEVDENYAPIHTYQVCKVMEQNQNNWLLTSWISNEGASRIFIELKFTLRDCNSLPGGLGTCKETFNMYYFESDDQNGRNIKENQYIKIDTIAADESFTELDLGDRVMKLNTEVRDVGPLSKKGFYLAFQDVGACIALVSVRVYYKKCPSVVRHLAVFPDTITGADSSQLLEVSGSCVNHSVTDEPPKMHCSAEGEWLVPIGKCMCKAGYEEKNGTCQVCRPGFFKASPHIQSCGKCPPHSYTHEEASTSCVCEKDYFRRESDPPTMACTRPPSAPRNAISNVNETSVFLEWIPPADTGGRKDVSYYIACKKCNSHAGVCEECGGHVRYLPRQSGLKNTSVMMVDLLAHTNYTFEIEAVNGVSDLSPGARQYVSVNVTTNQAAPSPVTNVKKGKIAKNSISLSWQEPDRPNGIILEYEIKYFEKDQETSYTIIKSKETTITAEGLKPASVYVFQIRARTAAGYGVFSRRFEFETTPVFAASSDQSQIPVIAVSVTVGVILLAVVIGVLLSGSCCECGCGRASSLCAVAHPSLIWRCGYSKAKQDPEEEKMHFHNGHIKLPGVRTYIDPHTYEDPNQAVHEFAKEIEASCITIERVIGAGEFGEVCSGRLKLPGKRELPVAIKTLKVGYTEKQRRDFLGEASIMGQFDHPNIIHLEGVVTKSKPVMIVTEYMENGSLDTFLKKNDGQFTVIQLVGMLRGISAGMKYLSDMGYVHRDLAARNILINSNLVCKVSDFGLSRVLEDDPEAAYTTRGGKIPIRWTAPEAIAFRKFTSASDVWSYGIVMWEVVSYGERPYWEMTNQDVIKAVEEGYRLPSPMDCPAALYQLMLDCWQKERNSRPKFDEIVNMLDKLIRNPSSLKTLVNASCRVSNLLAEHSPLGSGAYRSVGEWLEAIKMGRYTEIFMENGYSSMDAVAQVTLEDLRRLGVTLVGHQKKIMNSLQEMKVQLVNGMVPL

difference in %Control versus compound Ib at 1 µM (FLT3(N841I); @1000nM) | remaining binding at 1 µM (FLT3(N841I); @1000nM, read-out: %Control) | remaining binding at 1 µM (FLT3(N841I); read-out: %Control @1000nM) | difference in %Control from reference compound Ib at 1 µM (EGFR(E746-A750del); @1000nM) | remaining binding at 1 µM (EGFR(E746-A750del); @1000nM, read-out: %Control) | remaining binding at 1 µM (EGFR(E746-A750del); read-out: %Control @1000nM) | difference in %Control versus compound Ib at 1 µM (FGR; @1000nM) | remaining binding at 1 µM (FGR; @1000nM, read-out: %Control) | remaining binding at 1 µM (FGR; read-out: %Control @1000nM) | difference in %Control from compound Ib at 1 µM (EPHA5; @1000nM) | remaining binding at 1 µM (EPHA5; @1000nM, read-out: %Control) | remaining binding at 1 µM (EPHA5; read-out: %Control @1000nM) | difference in %Control versus compound Ib at 1 µM (FAK; @1000nM) | remaining binding at 1 µM (FAK; @1000nM, read-out: %Control) | remaining binding at 1 µM (FAK; read-out: %Control @1000nM) | remaining binding at 1 µM (EPHA3; @1000nM, read-out: %Control) | remaining binding at 1 µM (EPHA3; read-out: %Control @1000nM) | Structure (SMILES) | %Control @1000nM (FLT3(ITD)) | % difference (compound - Ib %Control) (FLT3(ITD)) | %Control (FLT3(ITD)) | other results
40% | 59% | 59% | 88% | 99% | 99% | 3.3% | 8.6% | 8.6% | -1% | 95% | 95% | -1% | 99% | 99% | 81% | 81% | Cc1cnc(S(C)(=O)=O)nc1N1CCCC(n2nc(-c3ccc(Oc4ccccc4)cc3)c3c(N)ncnc32)C1 (stereo not shown) [Compound 8a, 1-(1-(5-Methyl-2-(methylsulfonyl)pyrimidin-4-yl)piperidin-3-yl)-3-(4-phenoxyphenyl)-1H-pyrazolo[3,4-d]pyrimidin-4-amine] | 91% | 19% | 91% | difference in % of control versus compound Ib at 1 µM (EPHA3; @1000nM): 5%
43% | 62% | 62% | 73% | 84% | 84% | 20.7% | 26% | 26% | 4% | 100% | 100% | 0% | 100% | 100% | 77% | 77% | COC(=O)c1cnc(S(C)(=O)=O)nc1N1CCCC(n2nc(-c3ccc(Oc4ccccc4)cc3)c3c(N)ncnc32)C1 (stereo not shown) [Compound 8b, Methyl 4-(3-(4-Amino-3-(4-phenoxyphenyl)-1H-pyrazolo[3,4-d]pyrimidin-1-yl)piperidin-1-yl)-2-(methylsulfonyl)pyrimidine-5-carboxylate] | 100% | 28% | 100% | difference in % of control versus compound Ib at 1 µM (EPHA3; @1000nM): 1%

Further lines, the compound ahead of its results:

Structure (SMILES) | difference in %Control versus compound Ib at 1 µM (FLT3(N841I); @1000nM) | remaining binding at 1 µM (FLT3(N841I); @1000nM, read-out: %Control) | remaining binding at 1 µM (FLT3(N841I); read-out: %Control @1000nM) | difference in %Control from reference compound Ib at 1 µM (EGFR(E746-A750del); @1000nM) | remaining binding at 1 µM (EGFR(E746-A750del); @1000nM, read-out: %Control) | remaining binding at 1 µM (EGFR(E746-A750del); read-out: %Control @1000nM) | difference in %Control versus compound Ib at 1 µM (FGR; @1000nM) | remaining binding at 1 µM (FGR; @1000nM, read-out: %Control) | remaining binding at 1 µM (FGR; read-out: %Control @1000nM) | difference in %Control from compound Ib at 1 µM (EPHA5; @1000nM) | remaining binding at 1 µM (EPHA5; @1000nM, read-out: %Control) | remaining binding at 1 µM (EPHA5; read-out: %Control @1000nM) | difference in %Control versus compound Ib at 1 µM (FAK; @1000nM) | remaining binding at 1 µM (FAK; @1000nM, read-out: %Control) | remaining binding at 1 µM (FAK; read-out: %Control @1000nM) | remaining binding at 1 µM (EPHA3; @1000nM, read-out: %Control) | remaining binding at 1 µM (EPHA3; read-out: %Control @1000nM) | %Control @1000nM (FLT3(ITD)) | % difference (compound - Ib %Control) (FLT3(ITD)) | %Control (FLT3(ITD)) | other results
CNC(=O)c1cnc(S(C)(=O)=O)nc1N1CCCC(n2nc(-c3ccc(Oc4ccccc4)cc3)c3c(N)ncnc32)C1 (stereo not shown) [Compound 8d, 4-(3-(4-Amino-3-(4-phenoxyphenyl)-1H-pyrazolo[3,4-d]pyrimidin-1-yl)piperidin-1-yl)-N-methyl-2-(methylsulfonyl)pyrimidine-5-carboxamide] | 37% | 56% | 56% | 74% | 85% | 85% | 10.7% | 16% | 16% | 4% | 100% | 100% | 0% | 100% | 100% | 84% | 84% | 94% | 22% | 94% | difference in % of control versus compound Ib at 1 µM (EPHA3; @1000nM): 8%
C=CC(=O)N1CCC[C@@H](n2nc(-c3ccc(Oc4ccccc4)cc3)c3c(N)ncnc32)C1 [Compound 1g, Ibrutinib, reference compound] |  |  |  |  |  |  |  |  |  |  | 96% | 96% |  | 100% | 100% | 76% | 76% | 72% |  | 72% | %Control @1000nM (FGR): 5.3%; %Control (FGR; @1000nM): 5.3%
CCOC(=O)c1cnc(S(C)(=O)=O)nc1N1CCC[C@@H](n2nc(-c3ccc(Oc4ccccc4)cc3)c3c(N)ncnc32)C1 [Compound 8c, Ethyl (R)-4-(3-(4-Amino-3-(4-phenoxyphenyl)-1H-pyrazolo[3,4-d]pyrimidin-1-yl)piperidin-1-yl)-2-(methylsulfonyl)pyrimidine-5-carboxylate] | 54% | 73% | 73% | 89% | 100% | 100% | 13.7% | 19% | 19% | 4% | 100% | 100% | -4% | 96% | 96% | 77% | 77% | 100% | 28% | 100% | difference in % of control versus compound Ib at 1 µM (EPHA3; @1000nM): 1%

— paper PMC11345841, “Exploring 2-Sulfonylpyrimidine Warheads as Acrylamide Surrogates for Targeted Covalent Inhibition: A BTK Story” (Journal of Medicinal Chemistry, 2024)
